Measured values: PubChem BioAssay (NCI)
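48-hour exposure; five concentrations; linearly interpolated endpoints. TGI: total growth inhibition.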

Assays:
Assay in all cases: NCI anticancer screen, dose series, 48 h
786-0 renal = system: 786-0 renal
A498 renal = system: A498 renal
A549 NSCLC = system: A549 NSCLC
ACHN renal = system: ACHN renal
CAKI-1 renal = system: CAKI-1 renal
CCRF-CEM leukemia = system: CCRF-CEM leukemia
COLO 205 colon = system: COLO 205 colon
DLD-1 colon = system: DLD-1 colon
DMS 114 small cell lung = system: DMS 114 small cell lung
DMS 273 small cell lung = system: DMS 273 small cell lung
EKVX NSCLC = system: EKVX NSCLC
HCC-2998 colon = system: HCC-2998 colon
HCT-116 colon = system: HCT-116 colon
HCT-15 colon = system: HCT-15 colon
HL-60(TB) leukemia = system: HL-60(TB) leukemia
HOP-62 NSCLC = system: HOP-62 NSCLC
HT29 colon = system: HT29 colon
IGROV1 ovarian = system: IGROV1 ovarian
K-562 leukemia = system: K-562 leukemia
KM12 colon = system: KM12 colon
KM20L2 colon = system: KM20L2 colon
LOX IMVI melanoma = system: LOX IMVI melanoma
M14 melanoma = system: M14 melanoma
M19-MEL melanoma = system: M19-MEL melanoma
MALME-3M melanoma = system: MALME-3M melanoma
MOLT-4 leukemia = system: MOLT-4 leukemia
NCI-H226 lung = system: NCI-H226 lung
NCI-H23 lung = system: NCI-H23 lung
NCI-H460 lung = system: NCI-H460 lung
NCI-H522 lung = system: NCI-H522 lung
OVCAR-3 ovarian = system: OVCAR-3 ovarian
OVCAR-4 ovarian = system: OVCAR-4 ovarian
OVCAR-8 ovarian = system: OVCAR-8 ovarian
RPMI-8226 leukemia = system: RPMI-8226 leukemia
SF-295 CNS = system: SF-295 CNS
SF-539 CNS = system: SF-539 CNS
SK-MEL-2 melanoma = system: SK-MEL-2 melanoma
SK-MEL-5 melanoma = system: SK-MEL-5 melanoma
SN12C renal = system: SN12C renal
SNB-19 CNS = system: SNB-19 CNS
SNB-75 CNS = system: SNB-75 CNS
SR leukemia = system: SR leukemia
SW-620 colon = system: SW-620 colon
TK-10 renal = system: TK-10 renal
UACC-257 melanoma = system: UACC-257 melanoma
UACC-62 melanoma = system: UACC-62 melanoma
UO-31 renal = system: UO-31 renal
XF 498 CNS = system: XF 498 CNS
BT-549 breast = system: BT-549 breast
DU-145 prostate = system: DU-145 prostate
HOP-18 NSCLC = system: HOP-18 NSCLC
HOP-92 NSCLC = system: HOP-92 NSCLC
HS 578T breast = system: HS 578T breast
LXFL 529 NSCLC = system: LXFL 529 NSCLC
MDA-MB-231 breast = system: MDA-MB-231 breast
MDA-MB-435 = system: MDA-MB-435
MDA-N = system: MDA-N
NCI/ADR-RES ovarian = system: NCI/ADR-RES ovarian
OVCAR-5 ovarian = system: OVCAR-5 ovarian
PC-3 prostate = system: PC-3 prostate
RXF 393 renal = system: RXF 393 renal
SF-268 CNS = system: SF-268 CNS
SK-MEL-28 melanoma = system: SK-MEL-28 melanoma
SK-OV-3 ovarian = system: SK-OV-3 ovarian
SNB-78 CNS = system: SNB-78 CNS
T-47D breast = system: T-47D breast
U251 CNS = system: U251 CNS

Compound Cn1cc(C(=O)C[n+]2ccccc2)c2ccccc21 has a TGI (786-0 renal) of over 100 µM, a TGI (A498 renal) of 92.4 µM and a TGI (A549 NSCLC) of over 100 µM. The TGI (ACHN renal) was over 100 µM, the TGI (CAKI-1 renal) was over 100 µM and the TGI (CCRF-CEM leukemia) was over 100 µM. For the same compound, the TGI (COLO 205 colon) was over 100 µM, the TGI (DLD-1 colon) was over 100 µM and the TGI (DMS 114 small cell lung) was over 100 µM. The TGI (DMS 273 small cell lung) was over 100 µM, the TGI (EKVX NSCLC) was 88.3 µM and the TGI (HCC-2998 colon) was over 100 µM. For the same compound, the TGI (HCT-116 colon) was over 100 µM, the TGI (HCT-15 colon) was over 100 µM and the TGI (HL-60(TB) leukemia) was over 100 µM. It also gave a TGI (HOP-62 NSCLC) of over 100 µM, a TGI (HT29 colon) of over 100 µM and a TGI (IGROV1 ovarian) of over 100 µM. It also gave a TGI (K-562 leukemia) of over 100 µM, a TGI (KM12 colon) of over 100 µM and a TGI (KM20L2 colon) of over 100 µM. It also gave a TGI (LOX IMVI melanoma) of over 100 µM, a TGI (M14 melanoma) of over 100 µM and a TGI (M19-MEL melanoma) of over 100 µM. For the same compound, the TGI (MALME-3M melanoma) was over 100 µM, the TGI (MOLT-4 leukemia) was over 100 µM and the TGI (NCI-H226 lung) was 59.1 µM. For the same compound, the TGI (NCI-H23 lung) was over 100 µM, the TGI (NCI-H460 lung) was over 100 µM and the TGI (NCI-H522 lung) was over 100 µM. The TGI (OVCAR-3 ovarian) was over 100 µM, the TGI (OVCAR-4 ovarian) was over 100 µM and the TGI (OVCAR-8 ovarian) was over 100 µM. The TGI (RPMI-8226 leukemia) was over 100 µM, the TGI (SF-295 CNS) was over 100 µM and the TGI (SF-539 CNS) was over 100 µM. For the same compound, the TGI (SK-MEL-2 melanoma) was over 100 µM, the TGI (SK-MEL-5 melanoma) was over 100 µM and the TGI (SN12C renal) was over 100 µM. For the same compound, the TGI (SNB-19 CNS) was over 100 µM, the TGI (SNB-75 CNS) was over 100 µM and the TGI (SR leukemia) was over 100 µM. It also gave a TGI (SW-620 colon) of over 100 µM, a TGI (TK-10 renal) of over 100 µM and a TGI (UACC-257 melanoma) of over 100 µM. It also gave a TGI (UACC-62 melanoma) of over 100 µM, a TGI (UO-31 renal) of over 100 µM and a TGI (XF 498 CNS) of over 100 µM.

For C=C(c1ccccc1)[C@@]1(O)CC[C@@H]1N(CC#N)Cc1ccccc1, the TGI (786-0 renal) was 35.4 µM, the TGI (A498 renal) was over 100 µM and the TGI (A549 NSCLC) was over 73.5 µM. The TGI (ACHN renal) was 41.4 µM, the TGI (BT-549 breast) was 37.1 µM and the TGI (CAKI-1 renal) was 45.7 µM. It also gave a TGI (CCRF-CEM leukemia) of 62.5 µM, a TGI (COLO 205 colon) of 30.4 µM and a TGI (DLD-1 colon) of 36.4 µM. For the same compound, the TGI (DMS 114 small cell lung) was 34.3 µM, the TGI (DMS 273 small cell lung) was 39.7 µM and the TGI (DU-145 prostate) was over 100 µM. It also gave a TGI (EKVX NSCLC) of over 88.9 µM, a TGI (HCC-2998 colon) of 44.3 µM and a TGI (HCT-116 colon) of 30.3 µM. For the same compound, the TGI (HCT-15 colon) was 34.6 µM, the TGI (HL-60(TB) leukemia) was over 62.1 µM and the TGI (HOP-18 NSCLC) was 28 µM. It also gave a TGI (HOP-62 NSCLC) of over 100 µM, a TGI (HOP-92 NSCLC) of 34.9 µM and a TGI (HS 578T breast) of 65 µM. For the same compound, the TGI (HT29 colon) was 40 µM, the TGI (IGROV1 ovarian) was 72.6 µM and the TGI (K-562 leukemia) was over 74.3 µM. The TGI (KM12 colon) was over 71.4 µM, the TGI (KM20L2 colon) was over 100 µM and the TGI (LOX IMVI melanoma) was 34.6 µM. For the same compound, the TGI (LXFL 529 NSCLC) was 29.5 µM, the TGI (M14 melanoma) was 32.6 µM and the TGI (M19-MEL melanoma) was 57.1 µM. For the same compound, the TGI (MALME-3M melanoma) was 27.5 µM, the TGI (MDA-MB-231 breast) was 27.5 µM and the TGI (MDA-MB-435) was 47.5 µM. For the same compound, the TGI (MDA-N) was 40 µM, the TGI (MOLT-4 leukemia) was 69.2 µM and the TGI (NCI-H226 lung) was over 100 µM. The TGI (NCI-H23 lung) was 68 µM, the TGI (NCI-H460 lung) was over 100 µM and the TGI (NCI-H522 lung) was 47.8 µM. For the same compound, the TGI (NCI/ADR-RES ovarian) was 43.8 µM, the TGI (OVCAR-3 ovarian) was 17.1 µM and the TGI (OVCAR-4 ovarian) was 29.1 µM. The TGI (OVCAR-5 ovarian) was over 100 µM, the TGI (OVCAR-8 ovarian) was 52.3 µM and the TGI (PC-3 prostate) was 64.3 µM. For the same compound, the TGI (RPMI-8226 leukemia) was over 67 µM, the TGI (RXF 393 renal) was 34.6 µM and the TGI (SF-268 CNS) was over 83.9 µM. For the same compound, the TGI (SF-295 CNS) was over 100 µM, the TGI (SF-539 CNS) was 63.1 µM and the TGI (SK-MEL-2 melanoma) was 53.1 µM. For the same compound, the TGI (SK-MEL-28 melanoma) was 28.8 µM, the TGI (SK-MEL-5 melanoma) was 31.8 µM and the TGI (SK-OV-3 ovarian) was over 100 µM. The TGI (SN12C renal) was 46.8 µM, the TGI (SNB-19 CNS) was over 63.8 µM and the TGI (SNB-75 CNS) was over 96.5 µM. The TGI (SNB-78 CNS) was over 85.2 µM, the TGI (SR leukemia) was over 69.9 µM and the TGI (SW-620 colon) was 34.8 µM. For the same compound, the TGI (T-47D breast) was 38.2 µM, the TGI (TK-10 renal) was 35.5 µM and the TGI (U251 CNS) was over 100 µM. The TGI (UACC-257 melanoma) was 34 µM, the TGI (UACC-62 melanoma) was 32.1 µM and the TGI (UO-31 renal) was 67.4 µM.
